Experimental data from PMC11243693, “Synthesis and Biological Evaluation of New Compounds with Nitroimidazole Moiety” (Molecules, 2024).
≈ marks a conversion by molar mass, not a printed value.

Key:
[1] = test system: Candida tropicalis ATCC 1369; experiment: Broth microdilution, C. tropicalis ATCC 1369; format: cell-based; details: Ct 1369
Procedure: (§1) The antibacterial activity of the obtained thiosemicarbazides and hydrazide–hydrazones was determined by evaluating their ability to inhibit microbial growth in vitro using the broth microdilution method, according to the guidelines of the European Committee on Antimicrobial Susceptibility Testing (EUCAST). The method involved the preparation of microbial suspensions with a standardized density of 0.5 on the McFarland scale (equivalent to 1.5 × 10^8 colony-forming units/mL for bacteria and […] for fungi). A solution of the test substances was then prepared (initial concentration 1000 µg/mL, diluted in sterile Mueller-Hinton broth for bacteria or Mueller-Hinton with 2% glucose for fungi). The test was carried out in 96-well polystyrene flat-bottom plates (Medlab, Poland) with 100 µL of appropriate sterile microbiological medium in each well. The first wells were filled with 200 µL of the test substance, diluted to the initial concentration, and then double-decreasing dilutions were made under aseptic conditions using an automatic pipette. The final step was the addition of a 10-fold diluted microbial suspension of 2 µL. At the same time, the following controls were included: (a) medium control (100 µL of sterile medium without microorganisms added), (b) microbial viability control, (c) test substance control (dilutions without added micro-organisms), (d) positive control of the drug used in the clinic. The plates thus prepared were incubated for 18 ± 2 h at 35 ± 2 °C under conditions optimal for the growth of the test microorganisms. After incubation, the spectrophotometric absorbance at 570 nm in each well of the plate was read. The aim of this part of the study was to determine two parameters: the minimum inhibitory concentration (MIC) and the minimum bactericidal or fungicidal concentration (MBC/MFC) of the test compound. […] The MBC value was determined by adding 5 µL of the contents of each well of the plate to solid sterile MHA or MHA + 2%glc medium for bacteria and fungi, respectively. The area on the plate where 99.9% inhibition of microbial growth was observed indicated the lethal concentration. In addition, the quotient MBC(MFC)/MIC could be determined to assess the nature of the activity of the test substance. If MBC(MFC)/MIC was <4, the test substance was bactericidal/fungicidal, whereas if MBC(MFC)/MIC was ≥4, it was bacteriostatic/fungistatic. Amoxicillin (Glentham Life Sciences, USA) and nystatin (Glentham Life Sciences, USA) were used as the controls for this assay.
(§2) The test was performed either on bacteria, comprising: Gram-positive (Staphylococcus aureus ATCC 25923, Staphylococcus aureus ATCC 6538, Staphylococcus aureus ATCC 43300 methicillin-resistant MRSA, Staphylococcus epidermidis ATCC 12228, Micrococcus luteus ATCC 10240, Bacillus subtilis ATCC 6633, Bacillus cereus ATCC 10876) and Gram-negative (Escherichia coli ATCC 25922, Pseudomonas aeruginosa ATCC 27853, Proteus mirabilis ATCC 12453, Klebsiella pneumoniae ATCC 13883) or yeast (Candida parapsilosis ATCC 22019, Candida glabrata ATCC 90030, Candida krusei ATCC 14243, Candida glabrata ATCC 15126, Candida tropicalis ATCC 1369, Candida auris CDC B11903, Candida lusitaniae ATCC 3449) reference strains from the American Type Culture Collection (ATCC) or the Centers for Disease Control and Prevention (CDC).

[2] = test system: Bacillus subtilis ATCC 6633; experiment: Broth microdilution, B. subtilis ATCC 6633; format: cell-based; details: Bs 6633; for MBC/MIC Ratio: <4 bactericidal, ≥4 bacteriostatic
Procedure: as §1, §2

[3] = test system: Candida glabrata ATCC 15126; experiment: Broth microdilution, C. glabrata ATCC 15126; format: cell-based; details: Cg 15126
Procedure: as §1, §2

[4] = test system: Staphylococcus epidermidis ATCC 12228; experiment: Broth microdilution, S. epidermidis ATCC 12228; format: cell-based; details: Se 12228
Procedure: as §1, §2

[5] = test system: Bacillus cereus ATCC 10876; experiment: Broth microdilution, B. cereus ATCC 10876; format: cell-based; details: Bc 10876
Procedure: as §1, §2

[6] = test system: Candida glabrata ATCC 90030; experiment: Broth microdilution, C. glabrata ATCC 90030; format: cell-based; details: Cg 90030
Procedure: as §1, §2

[7] = test system: Candida auris CDC B11903; experiment: Broth microdilution, C. auris CDC B11903; format: cell-based; details: Ca B11903
Procedure: as §1, §2

[8] = test system: Staphylococcus aureus ATCC 6538; experiment: Broth microdilution, S. aureus ATCC 6538; format: cell-based; details: Sa 6538
Procedure: as §1, §2

[9] = test system: Candida lusitaniae ATCC 3449; experiment: Broth microdilution, C. lusitaniae ATCC 3449; format: cell-based; details: Cl 3449
Procedure: as §1, §2

[10] = test system: Candida spp.; experiment: Broth microdilution, Candida spp.; format: cell-based; details: range over both strains and the listed compounds
Procedure: as §1, §2

[11] = test system: Staphylococcus aureus ATCC 25923; experiment: Broth microdilution, S. aureus ATCC 25923; format: cell-based; details: Sa 25923
Procedure: as §1, §2

[12] = test system: Candida parapsilosis ATCC 22019; experiment: Broth microdilution, C. parapsilosis ATCC 22019; format: cell-based; details: Cp 22019; for MFC/MIC Ratio: <4 fungicidal, ≥4 fungistatic
Procedure: as §1, §2

[13] = test system: Micrococcus luteus ATCC 10240; experiment: Broth microdilution, M. luteus ATCC 10240; format: cell-based; details: Ml 10240
Procedure: as §1, §2

[14] = test system: Candida krusei ATCC 14243; experiment: Broth microdilution, C. krusei ATCC 14243; format: cell-based; details: Ck 14243
Procedure: as §1, §2

[15] = test system: Staphylococcus aureus ATCC 43300 methicillin-resistant MRSA; experiment: Broth microdilution, S. aureus ATCC 43300 MRSA; format: cell-based; details: Sa 43300 MRSA
Procedure: as §1, §2

Row | SMILES | MIC [1] | MBC [2] | MIC [2] | MBC/MIC Ratio [2] | MIC [3] | MBC [4] | MIC [4] | MBC [5] | MIC [5] | MIC [6] | MIC [7] | MIC [8] | MIC [9] | MBC (range, C. parapsilosis ATCC 22019 and C. tropicalis ATCC 1369) [10] | MIC (range, C. parapsilosis ATCC 22019 and C. tropicalis ATCC 1369) [10] | MBC [11] | MIC [11] | MFC [12] | MIC [12] | melting point | also measured
1 | Cn1cc([N+](=O)[O-])nc1C(=O)NNC(=S)Nc1cccc(C(F)(F)F)c1 [Compound 13] | >1000 µg/mL | 500 µg/mL (≈ 1290 µM) | 500 µg/mL (≈ 1290 µM) | 1 | >1000 µg/mL | >1000 µg/mL | 1000 µg/mL (≈ 2580 µM) | >1000 µg/mL | 1000 µg/mL (≈ 2580 µM) | >1000 µg/mL | >1000 µg/mL | >1000 µg/mL | >1000 µg/mL | 500 to 1000 µg/mL | 62.5 to 1000 µg/mL | >1000 µg/mL | 500 µg/mL (≈ 1290 µM) | 1000 µg/mL (≈ 2580 µM) | 500 µg/mL (≈ 1290 µM) |  | MFC/MIC Ratio [12]: 2; MBC [13]: >1000 µg/mL; MIC [13]: 500 µg/mL (≈ 1290 µM); MIC [14]: >1000 µg/mL; MIC [15]: >1000 µg/mL
2 | Cn1cc([N+](=O)[O-])nc1C(=O)NN=Cc1ccccc1 [Compound 19, 1-methyl-4-nitro-N’-(phenylmethylidene)-1H-imidazole-2-carbohydrazide] |  |  |  |  |  |  |  |  |  |  |  |  |  |  |  |  |  |  |  | 280 to 284 °C | 
3 | Cn1cc([N+](=O)[O-])nc1C(=O)NN=Cc1cccc(Cl)c1 [Compound 21, N’-[(3-chlorophenyl)methylidene]-1-methyl-4-nitro-1H-imidazole-2-carbohydrazide] |  |  |  |  |  |  |  |  |  |  |  |  |  |  |  |  |  |  |  | 276 to 278 °C | 
4 | COc1ccccc1NC(=S)NNC(=O)c1nc([N+](=O)[O-])cn1C [Compound 9] | 500 µg/mL (≈ 1430 µM) | 500 µg/mL (≈ 1430 µM) | 500 µg/mL (≈ 1430 µM) | 1 | >1000 µg/mL | >1000 µg/mL | 500 µg/mL (≈ 1430 µM) | >1000 µg/mL | 1000 µg/mL (≈ 2850 µM) | >1000 µg/mL | >1000 µg/mL | 1000 µg/mL (≈ 2850 µM) | >1000 µg/mL | 500 to 1000 µg/mL | 62.5 to 1000 µg/mL | >1000 µg/mL | 500 µg/mL (≈ 1430 µM) | 1000 µg/mL (≈ 2850 µM) | 500 µg/mL (≈ 1430 µM) |  | MFC [1]: 1000 µg/mL (≈ 2850 µM); MFC/MIC Ratio ([1]; <4 fungicidal, ≥4 fungistatic): 2; MBC [8]: >1000 µg/mL; MFC/MIC Ratio [12]: 2; MBC [13]: >1000 µg/mL; MIC [13]: 500 µg/mL (≈ 1430 µM); MIC [14]: >1000 µg/mL; MBC [15]: >1000 µg/mL; MIC [15]: 1000 µg/mL (≈ 2850 µM)
5 | Cn1cc([N+](=O)[O-])nc1C(=O)NN=Cc1ccc(C(F)(F)F)cc1 [Compound 26, 1-methyl-4-nitro-N’-[(4-trifluoromethylphenyl)methylidene]-1H-imidazole-2-carbohydrazide] |  |  |  |  |  |  |  |  |  |  |  |  |  |  |  |  |  |  |  | 208 to 210 °C | 
